# Experiments:
# Format in all cases: in vivo
# [1] = system: redroot pigweed (Amaranthus retroflexus, AMARE); assay: Pre-emerge test, greenhouse herbicide activity screening; settings: pre-emerge, phytotoxicity rating 0-100 at 14 days after application
# In short: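 Compounds in acetone were track-sprayed at 15-1000 g ai/ha (187 l/ha) on sandy loam pots: pre-emerge one day after seeding, post-emerge at 2-3 leaf stage with 0.25% v/v non-ionic surfactant. Phytotoxicity was rated 14 days later on a 0 (no damage) to 100 (complete death) scale.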
# [2] = system: barnyardgrass (Echinochloa crus-galli, ECHCG); assay: as above; settings: pre-emerge, phytotoxicity rating 0-100 at 14 days after application
# In short: (§1)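 Applied at 15–1000 g ai/ha from acetone in 187 l/ha spray volume. Post-emergence applications included 0.25% v/v non-ionic surfactant and reached plants sown 8–21 days before. Pre-emergence applications were incorporated by surface watering. Efficacy or crop damage was rated on a 0–100 scale after 14 days.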
# [3] = system: green foxtail (Setaria viridis, SETVI); assay: as above; settings: pre-emerge, phytotoxicity rating 0-100 at 14 days after application
# In short: as §1
# [4] = system: ivyleaf morningglory (Ipomoea hederacea, IPOHE); assay: as above; settings: pre-emerge, phytotoxicity rating 0-100 at 14 days after application
# In short: as §1
# [5] = system: johnsongrass (Sorghum halepense, SORHA); assay: as above; settings: pre-emerge, phytotoxicity rating 0-100 at 14 days after application
# In short: as §1
# [6] = system: lambsquarters (Chenopodium album, CHEAL); assay: as above; settings: pre-emerge, phytotoxicity rating 0-100 at 14 days after application
# In short: as §1
# [7] = system: large crabgrass (Digitaria sanguinalis, DIGSA); assay: as above; settings: pre-emerge, phytotoxicity rating 0-100 at 14 days after application
# In short: as §1
# [8] = system: sicklepod (Cassia obtusifolia, CASOB); assay: as above; settings: pre-emerge, phytotoxicity rating 0-100 at 14 days after application
# In short: as §1
# [9] = system: velvetleaf (Abutilon theophrasti, ABUTH); assay: as above; settings: pre-emerge, phytotoxicity rating 0-100 at 14 days after application
# In short: as §1
# [10] = system: field corn (Zea mays L., var. Dekalb 535, CORN); assay: Pre-emerge test, crop safety; settings: crop damage, pre-emerge, phytotoxicity rating 0-100 at 14 days after application
# In short: (§2)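 Visual ratings on a 0-100 scale (0 no damage, 100 all plants dead) were taken at 14 days after treatment. Rates of 15-1000 g ai/ha in acetone, 187 l/ha, were sprayed onto soil one day after planting (pre-emerge) or onto 2-3 leaf plants with 0.25% v/v surfactant (post-emerge).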
# [11] = system: upland rice (Oryza sp., var. Tebonnet, RICE); assay: Pre-emerge test, crop safety; settings: crop damage, pre-emerge, phytotoxicity rating 0-100 at 14 days after application
# In short: as §2
# [12] = system: barnyardgrass (Echinochloa crus-galli, ECHCG); assay: Post-emerge test, greenhouse herbicide activity screening; settings: post-emerge, phytotoxicity rating 0-100 at 14 days after application
# In short: (§3)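 Sandy loam pots; pre-emerge: sown 1 d pre-spray, surface-watered after, then bottom-watered. Post-emerge: sown 8–21 d before, 2–3 leaf stage, + 0.25% v/v NIS, bottom-watered. Acetone, 187 l/ha track spray, 15–1000 g ai/ha. 0–100 injury score, day 14.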
# [13] = system: green foxtail (Setaria viridis, SETVI); assay: as above; settings: post-emerge, phytotoxicity rating 0-100 at 14 days after application
# In short: as §3
# [14] = system: ivyleaf morningglory (Ipomoea hederacea, IPOHE); assay: as above; settings: post-emerge, phytotoxicity rating 0-100 at 14 days after application
# In short: as §3
# [15] = system: johnsongrass (Sorghum halepense, SORHA); assay: as above; settings: post-emerge, phytotoxicity rating 0-100 at 14 days after application
# In short: as §3
# [16] = system: lambsquarters (Chenopodium album, CHEAL); assay: as above; settings: post-emerge, phytotoxicity rating 0-100 at 14 days after application
# In short: as §3
# [17] = system: large crabgrass (Digitaria sanguinalis, DIGSA); assay: as above; settings: post-emerge, phytotoxicity rating 0-100 at 14 days after application
# In short: as §3
# [18] = system: redroot pigweed (Amaranthus retroflexus, AMARE); assay: as above; settings: post-emerge, phytotoxicity rating 0-100 at 14 days after application
# In short: as §3
# [19] = system: sicklepod (Cassia obtusifolia, CASOB); assay: as above; settings: post-emerge, phytotoxicity rating 0-100 at 14 days after application
# In short: as §3
# [20] = system: velvetleaf (Abutilon theophrasti, ABUTH); assay: as above; settings: post-emerge, phytotoxicity rating 0-100 at 14 days after application
# In short: as §3
# [21] = system: field corn (Zea mays L., var. Dekalb 535, CORN); assay: Post-emerge test, crop safety; settings: post-emerge, crop damage rating 0-100 at 14 days after application
# In short: as §1
# [22] = system: upland rice (Oryza sp., var. Tebonnet, RICE); assay: Post-emerge test, crop safety; settings: post-emerge, crop damage rating 0-100 at 14 days after application
# In short: as §1
structure (smiles),measurement,setting,value
O=C(Nc1cc(Cl)ccc1-n1c(=O)n2n(c1=O)CCCC2)c1ccc2ccccc2c1 [9-19],Pre-emerge Herbicidal Activity AMARE,[1]; rate 63 g ai/ha,100
same,Pre-emerge Herbicidal Activity AMARE,[1]; rate 250 g ai/ha,100
same,Pre-emerge Herbicidal Activity ECHCG,[2]; rate 63 g ai/ha,0
same,Pre-emerge Herbicidal Activity ECHCG,[2]; rate 250 g ai/ha,0
same,Pre-emerge Herbicidal Activity SETVI,[3]; rate 63 g ai/ha,0
same,Pre-emerge Herbicidal Activity SETVI,[3]; rate 250 g ai/ha,60
same,Pre-emerge Herbicidal Activity IPOHE,[4]; rate 63 g ai/ha,30
same,Pre-emerge Herbicidal Activity IPOHE,[4]; rate 250 g ai/ha,0
same,Pre-emerge Herbicidal Activity SORHA,[5]; rate 63 g ai/ha,0
same,Pre-emerge Herbicidal Activity SORHA,[5]; rate 250 g ai/ha,20
same,Pre-emerge Herbicidal Activity CHEAL,[6]; rate 63 g ai/ha,100
same,Pre-emerge Herbicidal Activity CHEAL,[6]; rate 250 g ai/ha,100
same,Pre-emerge Herbicidal Activity DIGSA,[7]; rate 63 g ai/ha,0
same,Pre-emerge Herbicidal Activity DIGSA,[7]; rate 250 g ai/ha,80
same,Pre-emerge Herbicidal Activity CASOB,[8]; rate 63 g ai/ha,0
same,Pre-emerge Herbicidal Activity CASOB,[8]; rate 250 g ai/ha,20
same,Pre-emerge Herbicidal Activity ABUTH,[9]; rate 63 g ai/ha,100
same,Pre-emerge Herbicidal Activity ABUTH,[9]; rate 250 g ai/ha,100
same,Pre-emerge Herbicidal Activity CORN,[10]; rate 63 g ai/ha,0
same,Pre-emerge Herbicidal Activity CORN,[10]; rate 250 g ai/ha,0
same,Pre-emerge Herbicidal Activity RICE,[11]; rate 63 g ai/ha,30
same,Pre-emerge Herbicidal Activity RICE,[11]; rate 250 g ai/ha,50
same,Post-emerge Herbicidal Activity ECHCG,[12]; 63 g ai/ha,0
same,Post-emerge Herbicidal Activity ECHCG,[12]; 250 g ai/ha,10
same,Post-emerge Herbicidal Activity SETVI,[13]; 63 g ai/ha,10
same,Post-emerge Herbicidal Activity SETVI,[13]; 250 g ai/ha,20
same,Post-emerge Herbicidal Activity IPOHE,[14]; 63 g ai/ha,75
same,Post-emerge Herbicidal Activity IPOHE,[14]; 250 g ai/ha,90
same,Post-emerge Herbicidal Activity SORHA,[15]; 63 g ai/ha,0
same,Post-emerge Herbicidal Activity SORHA,[15]; 250 g ai/ha,0
same,Post-emerge Herbicidal Activity CHEAL,[16]; 63 g ai/ha,100
same,Post-emerge Herbicidal Activity CHEAL,[16]; 250 g ai/ha,100
same,Post-emerge Herbicidal Activity DIGSA,[17]; 63 g ai/ha,0
same,Post-emerge Herbicidal Activity DIGSA,[17]; 250 g ai/ha,10
same,Post-emerge Herbicidal Activity AMARE,[18]; 63 g ai/ha,80
same,Post-emerge Herbicidal Activity AMARE,[18]; 250 g ai/ha,98
same,Post-emerge Herbicidal Activity CASOB,[19]; 63 g ai/ha,80
same,Post-emerge Herbicidal Activity CASOB,[19]; 250 g ai/ha,95
same,Post-emerge Herbicidal Activity ABUTH,[20]; 63 g ai/ha,100
same,Post-emerge Herbicidal Activity ABUTH,[20]; 250 g ai/ha,100
same,Post-emerge Herbicidal Activity CORN,[21]; 63 g ai/ha,10
same,Post-emerge Herbicidal Activity CORN,[21]; 250 g ai/ha,10
same,Post-emerge Herbicidal Activity RICE,[22]; 63 g ai/ha,15
same,Post-emerge Herbicidal Activity RICE,[22]; 250 g ai/ha,25
